Measurements taken from ChEMBL document CHEMBL1201862, “PubChem BioAssay data set” (2004).
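Method: 48-hour compound exposure of cells in 96-well plates, five concentrations, linear interpolation of endpoints. GI50 is the concentration that inhibits growth by half.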 Activity calls are given as the source filed them. Cut-off read from the data, not from the text of the source: active = GI50 up to about 1.1 µM and inactive = higher.

Legend:
Experiment in all cases: NCI anticancer screen, dose series, 48 h
786-0 = system: 786-0
A498 = system: A498
BT-549 = system: BT-549
COLO 205 = system: COLO 205
DU-145 = system: DU-145
EKVX = system: EKVX
HCT-15 = system: HCT-15
HL-60 = system: HL-60
MDA-MB-231 = system: MDA-MB-231
MDA-N = system: MDA-N
OVCAR-3 = system: OVCAR-3
RPMI-8226 = system: RPMI-8226
SK-OV-3 = system: SK-OV-3
SN12C = system: SN12C
SNB-19 = system: SNB-19
U-251 = system: U-251
ACHN = system: ACHN
HCC 2998 = system: HCC 2998
OVCAR-8 = system: OVCAR-8
SF-268 = system: SF-268

Compound	GI50 (786-0)	GI50 (A498)	GI50 (BT-549)	GI50 (COLO 205)	GI50 (DU-145)	GI50 (EKVX)	GI50 (HCT-15) [µM]	GI50 (HL-60)	GI50 (MDA-MB-231)	GI50 (MDA-N)	GI50 (OVCAR-3)	GI50 (RPMI-8226)	GI50 (SK-OV-3)	GI50 (SN12C)	GI50 (SNB-19)	GI50 (U-251)	GI50 (ACHN)	GI50 (HCC 2998)	GI50 (OVCAR-8)	GI50 (SF-268)
COC(=O)/C(C#N)=C(\N)c1c(C)c2ccccc2oc1=N	> 100 µM (inactive)	> 100 µM (inactive)	64.6 µM (inactive)	> 100 µM (inactive)	> 100 µM (inactive)	> 100 µM (inactive)	> 100	> 100 µM (inactive)	86.7 µM (inactive)	> 100 µM (inactive)	> 100 µM (inactive)	> 100 µM (inactive)	> 100 µM (inactive)	> 100 µM (inactive)	> 100 µM (inactive)	> 100 µM (inactive)	–	–	–	–
COc1ccc2nc3cc([N+](=O)[O-])ccc3c(Nc3ccc(S(=O)(=O)Nc4ncccn4)cc3)c2c1	67 µM (inactive)	–	> 44.4 µM (inactive)	40.3 µM (inactive)	> 100 µM (inactive)	> 100 µM (inactive)	> 69.8	> 100 µM (inactive)	> 60.1 µM (inactive)	> 89.1 µM (inactive)	> 50.4 µM (inactive)	14.5 µM (inactive)	> 100 µM (inactive)	> 100 µM (inactive)	–	> 55 µM (inactive)	28.8 µM (inactive)	> 59 µM (inactive)	45.2 µM (inactive)	40 µM (inactive)
O=C1NC2NC3NC(=O)NC3NC2N1 (stereo not given)	> 100 µM (inactive)	> 100 µM (inactive)	> 100 µM (inactive)	> 100 µM (inactive)	> 100 µM (inactive)	> 100 µM (inactive)	–	> 100 µM (inactive)	> 100 µM (inactive)	> 100 µM (inactive)	> 100 µM (inactive)	> 100 µM (inactive)	–	> 100 µM (inactive)	> 100 µM (inactive)	> 100 µM (inactive)	> 100 µM (inactive)	–	> 100 µM (inactive)	–
O=C(COc1ccc(OCC(=O)NNC2=NC(c3cc(F)c(Cl)cc3Cl)CS2)c(Cl)c1)NNC1=NC(c2cc(F)c(Cl)cc2Cl)CS1 (stereo not given)	60.4 µM (inactive)	23.7 µM (inactive)	24.1 µM (inactive)	34.2 µM (inactive)	22.8 µM (inactive)	20.8 µM (inactive)	16.7	38.1 µM (inactive)	20 µM (inactive)	28.4 µM (inactive)	–	20 µM (inactive)	> 100 µM (inactive)	20.7 µM (inactive)	42.5 µM (inactive)	14.4 µM (inactive)	38.5 µM (inactive)	–	20.8 µM (inactive)	–
CC(C)(C)[Si](C)(C)O[C@@H](C(=O)OC1C=CCCC1)[C@@H](NC(=O)c1ccccc1)c1ccccc1 (stereo not given in full)	23.8 µM (inactive)	35.6 µM (inactive)	51.1 µM (inactive)	25.3 µM (inactive)	50.4 µM (inactive)	31.7 µM (inactive)	20	–	19.1 µM (inactive)	31 µM (inactive)	16.1 µM (inactive)	4.79 µM (inactive)	84.1 µM (inactive)	21 µM (inactive)	28.8 µM (inactive)	18.2 µM (inactive)	19.1 µM (inactive)	14.1 µM (inactive)	56.4 µM (inactive)	69.5 µM (inactive)
CN1C(=O)C2(C)SC1(c1ccccc1)C1C(=O)N(c3ccccc3)C(=O)C12 (stereo not given)	> 100 µM (inactive)	49.9 µM (inactive)	> 100 µM (inactive)	67.9 µM (inactive)	> 100 µM (inactive)	98.9 µM (inactive)	66.4	47.1 µM (inactive)	> 100 µM (inactive)	> 100 µM (inactive)	> 100 µM (inactive)	49.8 µM (inactive)	> 100 µM (inactive)	> 100 µM (inactive)	> 100 µM (inactive)	67.9 µM (inactive)	91.8 µM (inactive)	–	> 100 µM (inactive)	> 100 µM (inactive)
Cc1ccc(NC(=O)c2cc3ccccc3c(/N=N/c3cc(S(=O)(=O)O)ccc3O)c2O)c(C)c1	16.2 µM (inactive)	42.3 µM (inactive)	17.8 µM (inactive)	36.8 µM (inactive)	19.2 µM (inactive)	19.6 µM (inactive)	9.33	–	26.1 µM (inactive)	32.2 µM (inactive)	3.26 µM (inactive)	15 µM (inactive)	20 µM (inactive)	41.7 µM (inactive)	15.8 µM (inactive)	4.33 µM (inactive)	5.97 µM (inactive)	–	17.5 µM (inactive)	18.6 µM (inactive)
Cc1ccc(-c2cc(=O)c(=O)[nH][nH]2)cc1	> 100 µM (inactive)	> 100 µM (inactive)	> 100 µM (inactive)	> 100 µM (inactive)	> 100 µM (inactive)	> 100 µM (inactive)	> 100	–	> 100 µM (inactive)	> 100 µM (inactive)	> 100 µM (inactive)	–	> 100 µM (inactive)	> 100 µM (inactive)	–	> 100 µM (inactive)	> 100 µM (inactive)	> 100 µM (inactive)	> 100 µM (inactive)	> 100 µM (inactive)
O=c1oc2ccc([N+](=O)[O-])cc2cc1-c1csc(-c2ccccc2)n1	> 100 µM (inactive)	–	> 100 µM (inactive)	> 100 µM (inactive)	> 100 µM (inactive)	> 100 µM (inactive)	> 100	> 100 µM (inactive)	> 100 µM (inactive)	> 100 µM (inactive)	–	> 100 µM (inactive)	> 100 µM (inactive)	> 100 µM (inactive)	> 100 µM (inactive)	> 100 µM (inactive)	> 100 µM (inactive)	> 100 µM (inactive)	> 100 µM (inactive)	> 100 µM (inactive)
CN1C2CCC1CC(CCNC(c1ccccc1)c1ccccc1)C2 (stereo not given)	17.5 µM (inactive)	23.8 µM (inactive)	49.3 µM (inactive)	11.5 µM (inactive)	> 100 µM (inactive)	24.9 µM (inactive)	33.7	31 µM (inactive)	22.2 µM (inactive)	12.6 µM (inactive)	47.4 µM (inactive)	20.2 µM (inactive)	> 100 µM (inactive)	83 µM (inactive)	> 100 µM (inactive)	30.6 µM (inactive)	80.5 µM (inactive)	–	57 µM (inactive)	35.3 µM (inactive)
COc1cc(/C=C2\C[C@H]3[C@@H]4CCc5cc(O)ccc5[C@H]4CC[C@]3(C)C2=O)cc(OC)c1OC	15.6 µM (inactive)	32.4 µM (inactive)	18.9 µM (inactive)	16.7 µM (inactive)	3.69 µM (inactive)	10.1 µM (inactive)	25.8	–	14.3 µM (inactive)	15.6 µM (inactive)	11.4 µM (inactive)	14.4 µM (inactive)	21.2 µM (inactive)	15.1 µM (inactive)	19.9 µM (inactive)	15.8 µM (inactive)	15.5 µM (inactive)	12.9 µM (inactive)	15.5 µM (inactive)	8.73 µM (inactive)
N=C(N)SCCN1CCCCC1	22.3 µM (inactive)	48.6 µM (inactive)	25.1 µM (inactive)	> 100 µM (inactive)	24.7 µM (inactive)	60.3 µM (inactive)	25.6	21.2 µM (inactive)	22.8 µM (inactive)	30.2 µM (inactive)	22.2 µM (inactive)	14.1 µM (inactive)	46.8 µM (inactive)	26.3 µM (inactive)	–	19.9 µM (inactive)	25.6 µM (inactive)	–	28.6 µM (inactive)	24.4 µM (inactive)
CC1(C)CCSC(/C=C/c2ccccc2)=N1	12.9 µM (inactive)	20.1 µM (inactive)	7.14 µM (inactive)	–	35.8 µM (inactive)	31.6 µM (inactive)	9.77	33.1 µM (inactive)	15.7 µM (inactive)	12.4 µM (inactive)	15.2 µM (inactive)	17.7 µM (inactive)	43.9 µM (inactive)	–	20.1 µM (inactive)	17.9 µM (inactive)	17.5 µM (inactive)	–	15.5 µM (inactive)	30.8 µM (inactive)
C=C(CBr)CCCOCc1ccccc1	36.6 µM (inactive)	35.2 µM (inactive)	15 µM (inactive)	27.6 µM (inactive)	39.1 µM (inactive)	22.9 µM (inactive)	22	23.5 µM (inactive)	> 10 µM (inactive)	> 10 µM (inactive)	19.1 µM (inactive)	29.7 µM (inactive)	35.5 µM (inactive)	24.5 µM (inactive)	15.6 µM (inactive)	34.7 µM (inactive)	14.1 µM (inactive)	–	17 µM (inactive)	15.8 µM (inactive)
Cc1n[nH]c(=O)n1N=C(c1ccccc1)c1ccccc1	> 100 µM (inactive)	> 100 µM (inactive)	> 100 µM (inactive)	> 100 µM (inactive)	> 100 µM (inactive)	> 100 µM (inactive)	> 100	–	> 100 µM (inactive)	> 100 µM (inactive)	> 100 µM (inactive)	> 100 µM (inactive)	–	> 100 µM (inactive)	> 100 µM (inactive)	> 100 µM (inactive)	> 100 µM (inactive)	–	> 100 µM (inactive)	> 100 µM (inactive)
O=c1c2cc([N+](=O)[O-])ccc2nc2n1CCCCC2	> 100 µM (inactive)	87.9 µM (inactive)	78 µM (inactive)	> 100 µM (inactive)	> 100 µM (inactive)	66.4 µM (inactive)	> 100	14.2 µM (inactive)	> 100 µM (inactive)	> 100 µM (inactive)	> 100 µM (inactive)	> 100 µM (inactive)	> 100 µM (inactive)	> 100 µM (inactive)	–	> 100 µM (inactive)	> 100 µM (inactive)	–	> 100 µM (inactive)	> 100 µM (inactive)
